Source: article PMC12024264, “Frog Skin Peptides Hylin-a1, AR-23, and RV-23: Promising Tools Against Carbapenem-Resistant Escherichia coli and Klebsiella pneumoniae Infections” (Antibiotics, 2025)
In brackets after ≈: the same amount, converted by molar mass. Read-outs that look alike come from different tables or passages of the source. Where no end group is shown, it is not given here.

Assays:
HaCaT cells = experiment: MTT cytotoxicity assay on HaCaT keratinocytes; type: cell-based, human
Description: To evaluate their safety profile, cytotoxicity assays were performed on HaCaT keratinocytes. Cells were exposed for 20 h to peptides at doses ranging from 0.39 to 100 μM.
Figure 1 Dose–response curves for the AMPs against HaCaT cell line and CC50 (reported in μM), HillSlope, and R^2 values were obtained by the fitting of the curves. The viability effect of Hylin-a1, AR-23, and RV-23 was analyzed on HaCaT cells. The cell monolayer was treated with serial dilutions of peptides for 20 h. Untreated cells were used as a positive control, while dimethyl sulfoxide (DMSO) was used as a negative control. HillSlope: The measure of the steepness of the dose–response curve. […] R^2 (coefficient of determination) indicates how well the model fits the data. Ranges from 0 to 1, with 1 representing a perfect fit.
The cytotoxic effect of peptides was examined using 3-(4,5 dimethylthiazol-2-yl)-2,5-diphenyltetrazolium bromide (MTT), as previously described. Cell viability, expressed as a percentage, was calculated in relation to the viability of untreated cells (+). DMSO was used as negative control (−). The human keratinocyte cell line HaCaT (Cell Lines Service, CLS-, Eppelheim, Germany) was used as a cellular model to evaluate the peptides’ cytotoxicity. HaCaT cells were grown in Dulbecco’s Modified Eagle Medium (DMEM) with 4.5 g/L of glucose (Microtech, Naples, Italy) supplemented with an antibiotic solution 100× (Himedia, Naples, Italy) and 10% Fetal Bovine Serum (FBS, Microtech).

Serum stability assay = type: in vitro ADME, bovine; settings: 10% FBS
Description: The susceptibility of Hylin-a1, AR-23, and RV-23 to proteolytic degradation in serum was evaluated, following the protocol reported in Section 4.3.
Figure 6 AMP stability in serum. Stability profiles of Hylin-a1 (red line), AR-23 (gray line), and RV-23 (black line) are reported. All stability tests were performed at least in triplicate. LC-MS analyses were performed using an Agilent 1260 Infinity II LC/MSD system (Milan, Italy). The percentages of intact peptides after different time points of incubation in serum were determined by integrating RP-HPLC peaks from the chromatograms recorded at a wavelength of 210 nm. The test was performed in triplicate, and the data are presented as mean values, with error bars representing standard deviations.
Peptides were mixed with 10% FBS at a final concentration of 0.2 mg/mL and incubated in a water bath at 37 °C. […] Then, the mixture was diluted with 0.1% TFA in H2O (1:1). Samples were characterized using LC-MS on a C18 Aeris Peptide column (100 × 2.1 mm), applying a linear gradient from 5 to 80% solvent B (0.1% TFA in CH3CN) over solvent A (0.1% TFA in water) in 15 min at a flow rate of 0.2 mL/min. All stability tests were performed at least in triplicate. LC-MS analyses were performed using an Agilent 1260 Infinity II LC/MSD system (Milan, Italy).

E. coli 1441 [1] = settings: carbapenemase KPC (class A), rectal swab; microdilution, 37 °C, 20 h; N/D = no antibacterial activity detected
Description: (§1) Each strain was grown in Mueller Hinton Broth (MH Broth), and 5 × 10^5 CFU/mL was used to evaluate antibacterial activity. Clinical carbapenem-resistant K. pneumoniae and E. coli isolates were collected at the AOU of Virology and Microbiology of the University of Campania “Luigi Vanvitelli”.
(§2) The antimicrobial activity of Hylin-a1, AR-23, and RV-23 was investigated using a microdilution assay as reported by the National Committee on Clinical Laboratory Standards (NCCLS) guidelines against a broad spectrum of Gram-negative bacteria. […] In 96-well, the standardized bacterial inoculum (5 × 10^5 colony forming units, CFU/mL) was inoculated together with AMPs and incubated at 37 °C for 20 h. After the time of incubation, optical density (OD) was measured at TECAN, and data were expressed as a percentage of inhibition. In addition to assessing the MIC values, the bactericidal effect was also studied as reported elsewhere.

E. coli 3140 [2] = settings: carbapenemase OXA-48 (class D), urine; microdilution, 37 °C, 20 h; N/D = no antibacterial activity detected
Description: as §1, §2

E. coli 2267 [3] = settings: carbapenemase NDM (class B), rectal swab; microdilution, 37 °C, 20 h; N/D = no antibacterial activity detected
Description: as §1, §2

K. pneumoniae 1745 [4] = settings: carbapenemase KPC (class A), ulcer; microdilution, 37 °C, 20 h; N/D = no antibacterial activity detected
Description: as §1, §2

E. coli 716 [5] = settings: carbapenemases IMP1, VIM, NDM (class B), urine, N/D = no antibacterial activity detected
Description: as §1, §2

K. pneumoniae 1746 [6] = settings: carbapenemase VIM (class B), rectal swab; microdilution, 37 °C, 20 h; N/D = no antibacterial activity detected
Description: as §1, §2

K. pneumoniae 1711 [7] = settings: carbapenemase KPC (class A), rectal swab; microdilution, 37 °C, 20 h; N/D = no antibacterial activity detected
Description: as §1, §2

E. coli 1376 [8] = settings: carbapenemase NDM (class B), rectal swab, N/D = no antibacterial activity detected
Description: as §1, §2

E. coli ATCC 25992 = settings: microdilution (NCCLS), MH broth, 5 × 10^5 CFU/mL, 37 °C, 20 h, absorbance; 50 to 1.56 μM
Description: (§3) The three peptides were tested for their antibacterial activity. […] As described in the Materials and Methods section, the antibacterial effect of peptides was investigated using a microdilution assay. Each concentration of AMPs was inoculated with bacteria in 96-well plates and incubated at 37 °C for 20 h. After that, MIC values were determined by analyzing absorbance and expressed as a percentage of inhibition. MBC was assessed by observing the colonies’ growth on agar plates, as described elsewhere.
as §1, §2

K. pneumoniae ATCC 10031 = tested on: K. pneumoniae ATCC 10031
Description: as §3, §1, §2

E. coli 1441 [9] = experiment: Antibiotic resistance profile of clinical isolate (Table S1); type: cell-based, Escherichia coli
Description: (§4) Each strain was grown in Mueller Hinton Broth (MH Broth), and 5 × 10^5 CFU/mL was used to evaluate antibacterial activity. Clinical carbapenem-resistant K. pneumoniae and E. coli isolates were collected at the AOU of Virology and Microbiology of the University of Campania “Luigi Vanvitelli”. […]
(§5) Table S1. Antibiotic resistance profile of K. pneumoniae and E. coli clinical isolates . MIC: Minimum Inhibitory
(§6) Concentration was expressed in µg/mL; S: Sensible; I: Intermediate; R: Resistant.
(§7) Antibiotic Resistance Profile of the Clinical Isolated Bacteria
(§8) Antibiotics MIC (µg/mL) Interpretation […]

E. coli 3140 [10] = experiment: as above; type: cell-based, Escherichia coli
Description: as §4, §5, §6, §7, §8

E. coli 2267 [11] = experiment: as above; type: cell-based, Escherichia coli; settings: Table S1, E. coli 2267
Description: as §4, §5, §6, §7, §8

E. coli 716 [12] = experiment: as above; type: cell-based, Escherichia coli
Description: as §4, §5, §6, §7, §8

E. coli 1376 [13] = experiment: as above; type: cell-based, Escherichia coli
Description: as §4, §5, §6, §7, §8

K. pneumoniae 1745 [14] = experiment: as above; type: cell-based, Klebsiella pneumoniae; settings: Table S1, K. pneumoniae 1745
Description: as §4, §5, §6, §7, §8

K. pneumoniae 1746 [15] = experiment: as above; type: cell-based, Klebsiella pneumoniae
Description: as §4, §5, §6, §7, §8

K. pneumoniae 1711 [16] = experiment: as above; type: cell-based, Klebsiella pneumoniae; settings: Table S1, K. pneumoniae 1711
Description: as §4, §5, §6, §7, §8

E. coli = experiment: Checkerboard assay with meropenem
Description: (§9) The synergistic effect of the selected peptides and meropenem was examined using a checkerboard assay. This method investigates the interaction between various antimicrobial agents and their combined effectiveness against bacteria. […] It determines whether the combined agents act synergistically, additively, or antagonistically to identify combinations that can reduce drug resistance.
(§10) The rows contain two-fold dilutions of meropenem, while we reported a two-fold serial dilution of AMPs in the columns.
(§11) The checkerboard test was carried out to assess the antibacterial activity of peptides in combination with antibiotics. The test was performed by preparing the bacterial inoculum in the same manner as the tests described above. Non-toxic concentrations of all peptides and serial dilutions of meropenem were inoculated in a 96-well plate either alone or in combination. After 20 h, the plate was read at OD600, and the Fractional Inhibitory Concentration (FICI) was calculated according to the following formula:FICI = FIC (A) + FIC (B)
(§12) FIC (A) = MIC peptide in combination/MIC peptide alone
(§13) FIC (B) = MIC meropenem in combination/MIC Meropenem alone

K. pneumoniae = experiment: Checkerboard assay with meropenem
Description: as §9, §10, §11, §12, §13

[17] = Klebsiella pneumoniae, read-out: MIC

AIGSILGALAKGLPTLISWIKNR-NH2 [AR-23]
50% cytotoxic concentration (CC50) (HaCaT cells; HaCaT keratinocytes, 20 h exposure, 0.39 to 100 μM): 50 µM
CC50 obtained by the fitting of the curves (HaCaT cells; HaCaT, 20 h, Figure 1): 52.25 µM
percentage of intact fragments, almost constant up to 24 h (Serum stability assay; 0.2 mg/mL, 37 °C, RP-HPLC peaks at 210 nm, mean of triplicate, after the first 2 h up to 24 h): around 30%
half-life (Serum stability assay; serum, peptide 0.2 mg/mL, 37 °C water bath, ethanol precipitation, LC-MS, RP-HPLC peak integration at 210 nm, at least triplicate): < 2 h
MIC (E. coli 1441 [1]): 25 µM
MIC (E. coli 3140 [2]): 50 µM
MIC (E. coli 2267 [3]): 25 µM
MIC (K. pneumoniae 1745 [4]): 50 µM
MBC (E. coli 716 [5]): 50 µM
MIC (E. coli 716 [5]; microdilution, 37 °C, 20 h): 25 µM
MIC (K. pneumoniae 1746 [6]): 25 µM
MIC (K. pneumoniae 1711 [7]): 50 µM
MBC (E. coli 1376 [8]): 50 µM
MIC (E. coli 1376 [8]; microdilution, 37 °C, 20 h): 25 µM
MIC (E. coli ATCC 25992): 25 µM
MBC (K. pneumoniae ATCC 10031; colonies' growth on agar plates after microdilution, N/D = not detected antibacterial activity): 25 µM
MIC (K. pneumoniae ATCC 10031; microdilution (NCCLS), MH broth, 5 × 10^5 CFU/mL, 37 °C, 20 h, absorbance, 50 to 1.56 μM): 6.25 µM

C[C@@H](O)[C@H]1C(=O)N2C(C(=O)O)=C(S[C@@H]3CN[C@H](C(=O)N(C)C)C3)[C@H](C)[C@H]12 [Meropenem]
MIC (E. coli 1441 [9]; Escherichia coli, 1441): 1 µg/mL (≈ 2.61 µM)
Interpretation (E. coli 1441 [9]; Table S1, E. coli 1441): S
MIC (E. coli 3140 [10]; Escherichia coli, 3140): 0.5 µg/mL (≈ 1.3 µM)
Interpretation (E. coli 3140 [10]; Table S1, E. coli 3140): S
MIC (E. coli 2267 [11]; Escherichia coli, read-out: MIC): > 16 µg/mL
Interpretation (E. coli 2267 [11]): R
MIC (E. coli 716 [12]; Escherichia coli, 716): > 16 µg/mL
Interpretation (E. coli 716 [12]; Table S1, E. coli 716): R
MIC (E. coli 1376 [13]; Escherichia coli, 1376): > 16 µg/mL
Interpretation (E. coli 1376 [13]; Table S1, E. coli 1376): R
MIC (K. pneumoniae 1745 [14]; [17]): > 16 µg/mL
Interpretation (K. pneumoniae 1745 [14]): R
MIC (K. pneumoniae 1746 [15]; Klebsiella pneumoniae, 1746): 1 µg/mL (≈ 2.61 µM)
Interpretation (K. pneumoniae 1746 [15]; Table S1, K. pneumoniae 1746): S
MIC (K. pneumoniae 1711 [16]; [17]): > 16 µg/mL
Interpretation (K. pneumoniae 1711 [16]): R
MIC (E. coli; Escherichia coli, read-out: MIC of meropenem): 5 µg/mL
MIC of antibiotic (meropenem) in combination (E. coli; combined with AR23 at 6.25 μM): 1.25 µg/mL
MIC of antibiotic (meropenem) in combination (E. coli; combined with Hylin-a1 at 3.125 μM): 2.5 µg/mL
MIC of antibiotic (meropenem) in combination (E. coli; combined with RV-23 at 6.25 μM): 2.5 µg/mL
MIC (K. pneumoniae; Klebsiella pneumoniae, read-out: MIC of meropenem): 5 µg/mL
MIC of antibiotic (meropenem) in combination (K. pneumoniae; combined with AR23 at 3.125 μM): 0.625 µg/mL
MIC of antibiotic (meropenem) in combination (K. pneumoniae; combined with RV-23 at 3.125 μM): 0.625 µg/mL
